Values after ≈ are worked out from the molar mass of the structure shown.
Assays:
[1] = tested on: M. tuberculosis H37Rv (ATCC 27294); assay: Microplate Alamar blue assay (MABA); format: cell-based, Mycobacterium tuberculosis; conditions: for MIC: Mycobacterium tuberculosis
[2] = tested on: M. tuberculosis H37Rv (ATCC 27294); assay: microbe, parasite or virus in culture; format: cell-based, Mycobacterium tuberculosis; conditions: Mycobacterium tuberculosis; for inhibition at 64 µg/mL: % inhibition at 64 μg/mL, read-out: LORA % inh; for MIC: read-out: LORA MIC
Vero cells = assay: cells; conditions: Chlorocebus sabaeus; for cytotoxicity at 128 µg/mL: read-out: Vero cell (% inh); for IC50: read-out: Vero cell IC50
M. tuberculosis H37Rv [3] = tested on: M. tuberculosis H37Rv; design: method as in PMID 12828474; conditions: natural 2 isolated from P. elisabethae, at 12.5 μg/mL (40 μM); cited from earlier work
M. tuberculosis H37Rv [4] = tested on: M. tuberculosis H37Rv; design: method as in PMID 9145860; conditions: comparison values; cited from earlier work
NCI-60 cell line = conditions: cited from earlier work
[5] = M. tuberculosis H37Rv (ATCC 27294), replicating, read-out: MABA MIC

## CCCCCc1nc2c(C)c3c4c(c2o1)[C@@H](C)CC[C@@H]4[C@@H](C)C[C@H]3C=C(C)C [Compound 2, homopseudopteroxazole]
[1]; [5]
  MIC: > 128 µg/mL
[1]; semi-synthetic material, MABA
  activity against M. tuberculosis H37Rv: not active
[2]
  inhibition at 64 µg/mL: 22.6%
Vero cells
  cytotoxicity at 128 µg/mL: 0%
  IC50: > 128 µg/mL
M. tuberculosis H37Rv [3]
  inhibition against M. tuberculosis H37Rv: 80%

## NC[C@H]1O[C@H](O[C@H]2[C@H](O)[C@@H](O[C@H]3O[C@H](CO)[C@@H](O)[C@H](N)[C@H]3O)[C@H](N)C[C@@H]2N)[C@H](O)[C@@H](O)[C@@H]1O [kanamycin]
M. tuberculosis H37Rv [4]
  MIC of first and second line TB treatments: 2.5 to 10.3 µM

## CC[C@@H](CO)NCCN[C@@H](CC)CO [ethambutol]
M. tuberculosis H37Rv [4]
  MIC of first and second line TB treatments: 4.6 to 9.2 µM

## CC(C)=C[C@@H]1C[C@H](C)[C@H]2CC[C@H](C)c3c2c1c(C)c1ncoc31 [Compound 1, pseudopteroxazole]
[1]; (Vero Cell IC50)/(M. tuberculosis MIC)
  SI (Selectivity Index): >8.6
[1]; [5]
  MIC: 15 µg/mL (≈ 48.5 µM)
[1]; wild-type M. tuberculosis H37Rv, Table 2 experiment, read-out: MABA MIC H37Rv
  MIC: 7 µg/mL (≈ 22.6 µM)
[2]
  inhibition at 64 µg/mL: 99.7%
[2]; non-replicating persistent model
  MIC: 50 µg/mL
[2]; value given in μM
  MIC: 162 µM
Vero cells
  cytotoxicity at 128 µg/mL: 0%
  IC50: > 128 µg/mL
NCI-60 cell line
  cytotoxicity against the NCI-60 cell line assay: no significant cytotoxicity

From article PMC3447335, “Evaluation of Pseudopteroxazole and Pseudopterosin Derivatives against Mycobacterium tuberculosis and Other Pathogens” (Marine Drugs, 2012)
